Data from US9833497B2, “Human originated EGF domain proteins and use of the same” (CHENGDU SOURCEBIO LIMITED-LIABILITY COMPANY, priority 2013, dated 2017).

Legend:
Type in all cases: cell-based
[1] = test system: Serratia marcescens; experiment: MIC against Gram-negative bacteria: Serratia marcescens
Outline: (§1)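 Purified recombinant human EGF domain proteins are tested by broth dilution in LB against a 5×10^5 CFU/mL inoculum, with two-fold serial dilutions run in triplicate. Plates are incubated at 37° C with shaking, and the MIC is read as the lowest protein concentration without growth.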

[2] = test system: E. coli BL21; experiment: MIC against Gram-negative bacteria: E. coli BL21
Outline: as §1

[3] = test system: Pseudomonas aeruginosa; experiment: MIC against Gram-negative bacteria: Pseudomonas aeruginosa
Outline: as §1

[4] = test system: Enterobacter cloacae; experiment: MIC against Gram-negative bacteria: Enterobacter cloacae
Outline: as §1

[5] = test system: Moraxella catarrhalis; experiment: MIC against Gram-negative bacteria: Moraxella catarrhalis
Outline: as §1

[6] = test system: Proteus vulgaris; experiment: MIC against Gram-negative bacteria: Proteus vulgaris
Outline: as §1

[7] = test system: Klebsiella pneumonia; experiment: MIC against Gram-negative bacteria: Klebsiella pneumonia
Outline: as §1

[8] = test system: Proteus mirabilis; experiment: MIC against Gram-negative bacteria: Proteus mirabilis
Outline: as §1

[9] = test system: Aeromonas hydrophila; experiment: MIC against Gram-negative bacteria: Aeromonas hydrophila
Outline: as §1

[10] = test system: Citrobacter diversus; experiment: MIC against Gram-negative bacteria: Citrobacter diversus
Outline: as §1

[11] = test system: E. coli DH5α; experiment: Antibacterial activity: MIC and growth curve against E. coli DH5α in 96-well plate; details: minimal inhibitory concentration against E. coli DH5α; 96-well plate, 5×10^5 CFU/mL, 37° C., judged after 8 h
Outline: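 Log-phase bacteria (OD600 ~0.5) resuspended in LB at 5×10^5 CFU/mL, exposed to recombinant protein at 50, 25, 12.5 μg/mL final in triplicate, 37 °C shaking at 175 rpm. OD600 read every 30 min; MIC is lowest concentration showing no growth.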

[12] = 96-well plate, 5×10^5 CFU/mL, 37° C., 10 h
[13] = 10 h cultivation at 37° C., 5×10^5 CFU/mL, two-fold serial dilution

Substance: PRT706 (EVNHCSNYCQNGGTCVPSVLGRPTCSCALGFTGPNCG; listed as Homo sapiens)
- MIC S. marcescens [1, 12]: 12.5 µg/mL
- MIC E. coli BL21 [2, 12]: 50 µg/mL
- MIC P. aeruginosa [3, 12]: 12.5 µg/mL
- MIC E. cloacae [4, 12]: 25 µg/mL
- MIC M. catarrhalis [5, 12]: 50 µg/mL
- MIC P. vulgaris [6, 12]: 50 µg/mL
- MIC K. pneumonia [7, 12]: 12.5 µg/mL
- MIC P. mirabilis [8, 12]: 12.5 µg/mL
- MIC A. hydrophila [9, 12]: 50 µg/mL
- MIC C. diversus [10, 12]: 12.5 µg/mL
- MIC [11]: 25 µg/mL

Substance: PRT1163 (SVNSCAVNPCLHNGECVADNTSRGYHCRCPPSWQGDDCS; listed as Homo sapiens)
- MIC S. marcescens [1, 13]: 25 µg/mL
- MIC E. coli BL21 [2, 13]: 25 µg/mL
- MIC P. aeruginosa [3, 13]: 12.5 µg/mL
- MIC E. cloacae [4, 13]: 12.5 µg/mL
- MIC M. catarrhalis [5, 13]: 12.5 µg/mL
- MIC P. vulgaris [6, 13]: 12.5 µg/mL
- MIC K. pneumonia [7, 13]: 25 µg/mL
- MIC P. mirabilis [8, 13]: 12.5 µg/mL
- MIC A. hydrophila [9, 13]: 12.5 µg/mL
- MIC C. diversus [10, 13]: 12.5 µg/mL
- MIC [11]: 12.5 µg/mL

Substance: PRT1165 (NRAICRQGCSPKHGSCKLPGDCRCQYGWQGLYCD; listed as Homo sapiens)
- MIC S. marcescens [1, 13]: 12.5 µg/mL
- MIC E. coli BL21 [2, 13]: 25 µg/mL
- MIC P. aeruginosa [3, 13]: 12.5 µg/mL
- MIC E. cloacae [4, 13]: 50 µg/mL
- MIC M. catarrhalis [5, 13]: 25 µg/mL
- MIC P. vulgaris [6, 13]: 25 µg/mL
- MIC K. pneumonia [7, 13]: 25 µg/mL
- MIC P. mirabilis [8, 13]: 50 µg/mL
- MIC A. hydrophila [9, 13]: 25 µg/mL
- MIC C. diversus [10, 13]: 12.5 µg/mL
- MIC [11]: 50 µg/mL

Substance: PRT981 (DINECRSGACHAAHTRDCLQDPGGGFRCLCHAGFSGPRCQ; listed as Homo sapiens)
- MIC ([1]; S. marcescens, 10 h cultivation at 37° C.): 12.5 µg/mL
- MIC ([2]; E. coli BL21, 10 h cultivation at 37° C.): 12.5 µg/mL
- MIC ([3]; P. aeruginosa, 10 h cultivation at 37° C.): 50 µg/mL
- MIC ([4]; E. cloacae, 10 h cultivation at 37° C.): 50 µg/mL
- MIC ([5]; M. catarrhalis, 10 h cultivation at 37° C.): 25 µg/mL
- MIC ([6]; P. vulgaris, 10 h cultivation at 37° C.): 50 µg/mL
- MIC ([7]; K. pneumonia, 10 h cultivation at 37° C.): 12.5 µg/mL
- MIC ([8]; P. mirabilis, 10 h cultivation at 37° C.): 12.5 µg/mL
- MIC ([9]; A. hydrophila, 10 h cultivation at 37° C.): 12.5 µg/mL
- MIC ([10]; C. diversus, 10 h cultivation at 37° C.): 25 µg/mL
- MIC [11]: 25 µg/mL

Substance: PRT71 (VDACHLNPCENMGACVRSPGSPQGYVCECGPSHYGPYCE; listed as Homo sapiens)
- MIC (μg/mL) S. marcescens ([1]; Serratia marcescens, 96-well plate, 5×10^5 CFU/mL, 37° C., 10 h): 12.5 µg/mL
- MIC (μg/mL) E. coli BL21 ([2]; E. coli BL21, 96-well plate, 5×10^5 CFU/mL, 37° C., 10 h): 25 µg/mL
- MIC (μg/mL) P. aeruginosa ([3]; Pseudomonas aeruginosa, 96-well plate, 5×10^5 CFU/mL, 37° C., 10 h): 12.5 µg/mL
- MIC (μg/mL) E. cloacae ([4]; Enterobacter cloacae, 96-well plate, 5×10^5 CFU/mL, 37° C., 10 h): 50 µg/mL
- MIC (μg/mL) M. catarrhalis ([5]; Moraxella catarrhalis, 96-well plate, 5×10^5 CFU/mL, 37° C., 10 h): 50 µg/mL
- MIC (μg/mL) P. vulgaris ([6]; Proteus vulgaris, 96-well plate, 5×10^5 CFU/mL, 37° C., 10 h): 12.5 µg/mL
- MIC (μg/mL) K. pneumonia ([7]; Klebsiella pneumonia, 96-well plate, 5×10^5 CFU/mL, 37° C., 10 h): 25 µg/mL
- MIC (μg/mL) P. mirabilis ([8]; Proteus mirabilis, 96-well plate, 5×10^5 CFU/mL, 37° C., 10 h): 12.5 µg/mL
- MIC (μg/mL) A. hydrophila ([9]; Aeromonas hydrophila, 96-well plate, 5×10^5 CFU/mL, 37° C., 10 h): 25 µg/mL
- MIC (μg/mL) C. diversus ([10]; Citrobacter diversus, 96-well plate, 5×10^5 CFU/mL, 37° C., 10 h): 12.5 µg/mL
- MIC [11]: 50 µg/mL
